From patent publication US11427553B2, “Dihydrooxadiazinones” (Bayer Aktiengesellschaft, priority 2017, dated 2022) come the findings set out here.

The subject of one test is SK-MEL-3 cells. Briefly: Assay 1 cell proliferation measurement (CTG, 72 h), SK-MEL-3. In kind it is cell-based, human. To be noted: Homo sapiens, SK-MEL3; Assay 1, 72 h, Cell Titer Glo; read-out: SK-MEL-3 IC50 [nM] (melanoma). An outline of the steps: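 CellTiter-Glo luminescence was read at treatment start (0 h plate) and after 72 h compound exposure at 37 °C. Doses were 2.5-fold steps, ten concentrations, top 100 nM final, 0.3% DMSO. Growth inhibition was scaled between 0 h and vehicle values, and IC50 was obtained by 4-parameter fitting.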
For orientation: Cellular ATP, detected with luciferase, serves as a proxy for viable cell number.

The next test relates to HS578T cells. Briefly: Assay 2 cell proliferation measurement, HS578T. To be noted: Homo sapiens, Hs-578T, Breast, ductal carcinoma, read-out: Anti-proliferation IC50 [nM] HS578T. In kind it is cell-based. On the procedure: (§1) Cell Proliferation Measurement
(§2) The antiproliferative activity of the compounds of the general formula (I) was examined in vitro in human cancer cells. For this purpose, 500 cells, including HeLa cells, A2058 cells, DU145 cells, HMCB cells, IGR37 cells, NCIH1734 cells, OSRC2 cells, or 750 cells, including CAL51 cells, COL0741 cells, DBTRG05MG cells, DKMG cells, G292CLONEA141B1 cells, GB1 cells, HEL cells, HEL9217 cells, JHUEM1 cells, L3.3 cells, LI7 cells, TE4 cells, or 1000 cells, including 8505C cells, HUT78 cells, NCIH1563 cells, NCIH2122 cells, NCIH2172 cells, RVH421 cells, SKMEL3 cells, or 1500 cells, including C32 cells, HS578T cells, JHOM1 cells, NCIH196 cells, OVKATE cells, were plated in 384-well plates with appropriate growth medium and incubated at 37° C. overnight. After 24 h, the cells on the test plate were treated with the compounds of the general formula (I) as and incubated at 37° C. for 72 h. The compounds were added to the cells by means of an HP D300 digital dispenser in a 10 (or more)-step dilution series. As control, the cells were treated with vehicle (DMSO at 0.3% final concentration). After 72 h, the cells were treated with 20 μl/well of 50% CTG solution in PBS (Promega Cell Titer Glo (catalogue #G755B and G756B)) and incubated at room temperature for 10 min, and luminescence was measured by means of a VICTOR V (Perkin Elmer), in order to determine cell viability at the end of treatment. The percentage effect on cell growth and the IC50 derived therefrom were determined for each test substance using the values from untreated wells (=percent viability). The IC50 values were calculated using a 4-parameter fit.

For a further test, the system named is NCIH196 cells. Put plainly: Assay 2 cell proliferation measurement, H196. In kind it is cell-based. To be noted: Homo sapiens, NCI-H196, Lung small cell carcinoma, read-out: Anti-proliferation IC50 [nM] H196. On the procedure: as §1, §2
The subject of another test is RVH421 cells. Put plainly: Assay 2 cell proliferation measurement, RVH421. It is filed as cell-based. To be noted: Homo sapiens, RVH-421, Melanoma, read-out: Anti-proliferation IC50 [nM] RVH421. As to the method: as §1, §2
The next test relates to CHL-1 cells. Briefly: Assay 1 cell proliferation measurement, CHL-1. The settings on record: Homo sapiens, Melanoma, read-out: Anti-proliferation IC50 [nM] CHL-1. It is filed as cell-based.
A further test concerns the target human full length PDE3A (Homo sapiens (Human), UniProt Q14432). Put plainly: Assay 4 PDE3A enzyme inhibition (3H-cAMP SPA). To be noted: Sf9 cell extract. It is filed as biochemical. The method, boiled down: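 Hydrolysis of [8-3H]cAMP by Sf9-expressed full-length PDE3A was measured by scintillation proximity, with enzyme diluted to keep kinetics linear and substrate consumption below 70%. Incubation ran 60 min at room temperature at pH 7.5.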

human full length PDE3A, sequence (Q14432 whole entry): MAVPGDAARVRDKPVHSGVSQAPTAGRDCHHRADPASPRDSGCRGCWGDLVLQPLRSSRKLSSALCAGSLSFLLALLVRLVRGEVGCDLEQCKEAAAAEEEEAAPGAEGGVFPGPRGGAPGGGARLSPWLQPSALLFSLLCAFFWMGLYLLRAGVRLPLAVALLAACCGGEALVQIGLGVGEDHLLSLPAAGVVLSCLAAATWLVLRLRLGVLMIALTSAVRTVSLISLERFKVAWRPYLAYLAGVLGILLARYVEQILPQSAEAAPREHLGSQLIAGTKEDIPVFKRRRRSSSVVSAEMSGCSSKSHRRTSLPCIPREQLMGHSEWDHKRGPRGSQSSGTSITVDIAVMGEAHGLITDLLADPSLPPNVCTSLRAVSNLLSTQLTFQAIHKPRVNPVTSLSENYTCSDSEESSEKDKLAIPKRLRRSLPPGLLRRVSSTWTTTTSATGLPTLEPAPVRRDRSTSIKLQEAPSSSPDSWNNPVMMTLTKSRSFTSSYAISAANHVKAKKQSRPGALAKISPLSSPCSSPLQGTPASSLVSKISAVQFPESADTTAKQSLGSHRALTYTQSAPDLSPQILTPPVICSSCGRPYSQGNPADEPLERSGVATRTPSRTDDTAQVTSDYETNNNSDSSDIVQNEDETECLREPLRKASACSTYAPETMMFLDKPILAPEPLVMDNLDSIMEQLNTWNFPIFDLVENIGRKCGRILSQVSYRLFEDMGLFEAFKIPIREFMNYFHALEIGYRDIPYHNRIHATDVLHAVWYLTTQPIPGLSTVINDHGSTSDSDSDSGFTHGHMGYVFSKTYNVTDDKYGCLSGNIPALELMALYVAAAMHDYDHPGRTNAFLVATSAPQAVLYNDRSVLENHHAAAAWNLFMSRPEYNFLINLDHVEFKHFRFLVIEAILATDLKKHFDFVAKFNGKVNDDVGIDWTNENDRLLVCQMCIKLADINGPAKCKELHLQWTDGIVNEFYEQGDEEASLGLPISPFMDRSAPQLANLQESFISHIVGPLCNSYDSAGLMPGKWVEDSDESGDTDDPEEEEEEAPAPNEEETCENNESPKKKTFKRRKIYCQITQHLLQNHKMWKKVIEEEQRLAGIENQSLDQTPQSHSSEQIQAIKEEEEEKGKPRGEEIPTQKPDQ

In the case of `C[C@@H]1OC(=O)NN=C1c1ccc(-n2ccc(C(F)(F)F)n2)c(C(F)(F)F)c1` [Example 265, (6S)-6-Methyl-5-{3-(trifluoromethyl)-4-[3-(trifluoromethyl)-1H-pyrazol-1-yl]phenyl}-3,6-dihydro-2H-1,3,4-oxadiazin-2-one], the IC50 with SK-MEL-3 cells came to 5 nM; in the test with HS578T cells, 116 nM; in the test with NCIH196 cells, 355 nM; with RVH421 cells it was 262 nM.

As to `O=C1NN=C(c2ccc(-c3ccc(F)cc3)c(C(F)(F)F)c2)CO1` [Example 3, 5-[4′-Fluoro-2-(trifluoromethyl)biphenyl-4-yl]-3,6-dihydro-2H-1,3,4-oxadiazin-2-one], the IC50 with SK-MEL-3 cells came to 7 nM; in the test with CHL-1 cells, 9 nM; against human full length PDE3A it was 285 nM.

As to `C[C@@H]1OC(=O)NN=C1c1ccc(-c2ccc(F)cc2)c(C(F)(F)F)c1` [Example 135, (6S)-5-[4′-Fluoro-2-(trifluoromethyl)biphenyl-4-yl]-6-methyl-3,6-dihydro-2H-1,3,4-oxadiazin-2-one], the IC50 in the test on SK-MEL-3 cells is 3 nM; with HS578T cells, 33 nM; in the test on NCIH196 cells, 150 nM; with RVH421 cells it was 140 nM; at human full length PDE3A, 87 nM.

On to `O=C1NN=C(c2ccc(-c3ccc(Cl)cc3)c(C(F)(F)F)c2)CO1` [Example 31, 5-[4′-Chloro-2-(trifluoromethyl)biphenyl-4-yl]-3,6-dihydro-2H-1,3,4-oxadiazin-2-one], for which the IC50 with SK-MEL-3 cells was 11 nM; in the test with CHL-1 cells, 28 nM; against human full length PDE3A, 310 nM.

Consider `O=C1NN=C(c2ccc(-c3cnn(C(F)F)c3)c(C(F)(F)F)c2)CO1` [Example 146, 5-{4-[1-(Difluoromethyl)-1H-pyrazol-4-yl]-3-(trifluoromethyl)phenyl}-3,6-dihydro-2H-1,3,4-oxadiazin-2-one], for which the IC50 was found to be 2 nM in the test on SK-MEL-3 cells; 8 nM in the test with CHL-1 cells; 20 nM in the test on HS578T cells; 32 nM with NCIH196 cells; 47 nM in the test on RVH421 cells; 40 nM against human full length PDE3A.
